Experimental data from patent US20030225007A1, “Sulfonamide derivatives of 3-substituted imidazol[1,2-d]-1,2,4-thiadiazoles and 3-substituted-[1,2,4] thiadiazolo[4,5-a] benzimidazole as inhibitors of fibrin cross-linking and transglutaminases” (Apotex Inc., priority 2002, published 2003).

Tests used:
[1] = tested on: fibrin cross-linking in human plasma clots; assay: Inhibition of fibrin cross-linking in plasma clots (125I-fibrinogen, SDS-PAGE); type: biochemical; settings: platelet-depleted and platelet-rich human plasma clots; inactivator at 40, 80 and 160 μM, added before thrombin and CaCl2
Method: Citrated human plasma (0.3 mL) containing 2-4 μg/mL of ^125I-labeled fibrinogen (specific activity approx. 200 μCi/mg, at least 85% clotability, Amersham Pharmacia Biotech UK Ltd.) was clotted by the addition of CaCl2 (6.4 μL) to a final concentration of 50 mM and thrombin (6.2 μL) to a final concentration of 5 units/mL. Solutions of Factor XIIIa inactivators in DMSO were added just prior to the addition of thrombin and CaCl2. In some cases the inactivator was dissolved and added to plasma in water. To these samples, DMSO (3.2 μL) was added, to make 1% final concentration. Conversely, water (3.2 μL) was added to clots to which inactivator was added in DMSO. In control samples both DMSO (3.2 μL) and water (3.2 μL) were added in place of the inactivator solution. Typically, only 20 μL of the mixture was withdrawn before clotting (the remainder of the solution was used for the fibrinolysis assay) and incubated at 37° C. for 30 min.
100 μL of 9 M urea containing 40 mM DTT was added and the solutions were incubated at 37° C. until the clots were completely dissolved. The samples were analyzed on SDS-PAGE gels using a standard procedure. The amount of radioactivity in each electrophoretic band was quantitated using a Storm 820 (Molecular Dynamics) autoradiography system after exposing the gel to a Kodak Storage Phosphor Screen. […]

[2] = tested on: platelet-depleted and platelet-rich human plasma clots; assay: Acceleration of fibrinolysis of platelet-depleted and platelet-rich plasma clots (t-PA lysis); type: biochemical; settings: platelet-depleted and platelet-rich human plasma clots made with varying inhibitor concentrations; lysis with 300 IU/mL t-PA; FIG. 3
Method: Platelet rich (platelet count: 150,000-300,000 mm^−3) or platelet-depleted citrated human plasma was prepared from at least three donors. Plasma (0.3 mL), containing 2-4 μg/mL of ^125I-labeled fibrinogen (specific activity approx. 200 μCi/mg, at least 85% clotability, Amersham Pharmacia Biotech UK Ltd.), was clotted by the addition of CaCl2 (6.4 μL) to a final concentration of 50 mM and thrombin (6.2 μL) to a final concentration of 5 units/mL. Solutions of Factor XIIIa inactivators in DMSO were added just prior to the addition of thrombin and CaCl2. In some cases the inactivator was dissolved and added to plasma in water. To these samples, DMSO (3.2 μL) was mixed in to make 1% final concentration. Conversely, water (3.2 μL) was added to clots to which inactivator was added in DMSO. […] The progress of the fibrinolysis was followed by quantitating the amount of radioactivity in a 20 μL aliquot of the lysis buffer at various lysis times. To measure the total amount of radioactivity in the clots taken for lysis, 0.6 mg bovine trypsin was added to each sample at the end of the lysis and the solutions were incubated for 4 hours at 37° C., or until the digestion was complete. An aliquot (20 μL) of the resulting solution was counted in the liquid scintillation counter. Per cent of fibrinolysis was then calculated with a correction for sub-sampling. […]

**Q.** For `O=C(O)CN(CCCCCCNS(=O)(=O)c1ccccc1[N+](=O)[O-])c1nsc2nccn12` [H / CH2CO2H / 2-NO2-Ph, N-imidazo[1,2-d][1,2,4]thiadiazol-3-yl-N-(6-{[(2-nitrophenyl)sulfonyl]amino}hexyl)glycine], which “formation of high molecular weight polymer in plasma clots” value [1] is on record?
**A.** The value was “inhibits the formation of high molecular weight polymer”.

**Q.** What about the “fibrinolysis of plasma clots” value [2] of the same molecule?
**A.** Its value is “acceleration of fibrinolysis”.
